# Reference: patent US20140329706A1, “AFFINITY TAGS, AND RELATED AFFINITY LIGANDS, ENGINEERED PROTEINS, MODIFIED SUPPORTS, COMPOSITIONS, METHODS AND SYSTEMS” (CALIFORNIA INSTITUTE OF TECHNOLOGY, priority 2013, published 2014)
# Where two headings read alike, the source gives them in different places. Where no end group is shown, it is not given here. MBP = maltose binding protein (fusion tag)
# Tests used:
# [1] = target: T1, PSD-95 PDZ2 coupled to a solid support (Mus musculus, UniProt Q62108); experiment: Binding of NR2B tail truncation fusion proteins to PSD-95 PDZ2 affinity resin; conditions: elution with SIESDV peptide, SDS-PAGE
# T1 construct: pJExpress414 plasmids containing a gene coding for the PDZ2 domain of PSD-95; made in house; host or cells: E. coli BL21(DE3)
# T1 sequence (Q62108 160-246 limits assumed): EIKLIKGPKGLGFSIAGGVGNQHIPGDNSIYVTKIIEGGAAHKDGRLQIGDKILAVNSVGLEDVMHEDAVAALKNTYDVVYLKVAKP
# Method: For the experiment, fusion proteins containing THX fused to varying numbers of residues from the NR2B Tail ([…]) were expressed in BL21(DE3) E. coli cells. Single colonies of BL21(DE3) cells harboring pJExpress414 plasmids containing genes of interest were grown overnight at 37° C. in 5 ml of lysogeny broth (LB) (Cat. No. L9110, Teknova, Hollister, Calif.) supplemented with 100 ug/ml carbenicillin. Overnight cultures were diluted 1:500 into Overnight Express Instant Terrific Broth (TB) Media (Cat. No. 71491, EMD Millipore, Billerica, Mass.), grown for 16 h at 37° C., pelleted by centrifugation, and flash frozen in liquid nitrogen. Bacterial cell pellets (0.4-2.5 grams) containing fusions of THX fused to varying numbers of residues from the NR2B Tail ([…]) were resuspended in 5 ml/g cell paste of BugBuster Lysis Buffer [1× BugBuster (Cat. No. 70921, EMD Millipore, Billerica Mass.), 50 mM HEPES, 150 mM NaCl, 5 mM TCEP, 0.5 mM EDTA, 10 mM MgCl2, 2 mM PMSF, Complete Protease Inhibitor supplemented with 25 U/ml Benzonase and 10 U/ml ReadyLyse]. Resuspended cells were incubated on a shaking platform at low speed for 20 minutes at room temperature before the lysate was clarified by centrifugation at 16,000×g for 30 min at 4° C. […] Eluted protein was analyzed on 4-12% bis-tris SDS-PAGE gels and proteins were detected by Gel Code Blue staining.
# For the experiment, fusion proteins containing MBP fused to varying numbers of residues from the NR2B Tail ([…]) were expressed in BL21(DE3) E. coli cells. […] Bacterial cell pellets (0.4-2.5 grams) containing fusions of MBP fused to varying numbers of residues from the NR2B Tail ([…]) were resuspended in 5 ml/g cell paste of BugBuster Lysis Buffer [1× BugBuster (Cat. No. 70921, EMD Millipore, Billerica Mass.), 50 mM HEPES, 150 mM NaCl, 5 mM TCEP, 0.5 mM EDTA, 10 mM MgCl2, 2 mM PMSF, Complete Protease Inhibitor supplemented with 25 U/ml Benzonase and 10 U/ml ReadyLyse]. […]
# [2] = refs (54-58); read-out: approximate KD; cited from earlier work
# [3] = system: NR2B C-terminal PDZ domain binding peptide, 1× nNOS PDZ-β-hairpin domains or 2× nNOS PDZ-β-hairpin domains; experiment: Binding of control MBP or GST to peptide and nNOS PDZ affinity resins; conditions: expressed alone without a PDZ domain
# Text: In order to test the hypothesis, PSD-95 PDZ2 domains (e.g. Type C PDZ affinity tags) were fused N- or C-terminally to MBP, or internally between an MBP and GST proteins and purified using affinity chromatography resins comprised of NR2B C-terminal PDZ domain binding peptide (H3N+-[…]-COO—), 1× nNOS PDZ-β-hairpin domains or 2× nNOS PDZ-β-hairpin domains. […] Tags performed equally when fused internally or C-terminally, however N-terminal tag fusions were purified in slightly lower yield.
# For the experiment, MBP, GST and PSD-95 PDZ2 domains protein or fusion proteins consisting of MBP and/or GST fused in frame with N-terminal, internal or C-terminal PSD-95 PDZ2 domains (e.g. Type C PDZ affinity tags) were expressed in BL21(DE3) E. coli cells. […] Bacterial cell pellets (0.4-2.5 grams) containing the proteins of interest were resuspended in 5 ml/g cell paste of BugBuster Lysis Buffer [1× BugBuster (Cat. No. 70921, EMD Millipore, Billerica Mass.), 50 mM HEPES, 150 mM NaCl, 5 mM TCEP, 0.5 mM EDTA, 10 mM MgCl2, 2 mM PMSF, Complete Protease Inhibitor supplemented with 25 U/ml Benzonase and 10 U/ml ReadyLyse]. […] Eluted protein was analyzed on 4-12% bis-tris SDS-PAGE gels and proteins were detected by Gel Code Blue staining.
# PDZ2 domain of PSD-95 = PDZ2 domain of PSD-95 (Rattus norvegicus, UniProt P31016); conditions: cited from earlier work
# PDZ1 domain of PSD-95 = PDZ1 domain of PSD-95 (Rattus norvegicus, UniProt P31016); conditions: cited from earlier work
# [4] = untagged LacZ, Wallenfels & Malhotra, cited from earlier work
substance,measurement,setting,value
MBP-EKLSSIESD: MBP fused to NR2B tail sequence lacking the C-terminal valine ({MBP}-EKLSSIESD),binding to and elution from PSD-95 PDZ2 matrix,[1],abolished binding to the column
"GST: glutathione-S-transferase, known affinity tag and control fusion partner",Kd,[2],40 to 170 µM
same,binding to affinity resins,[3],did not bind to any of the three affinity resins
SIESDV,Kd,PDZ2 domain of PSD-95; ref (49),0.7 µM
same,Kd,PDZ2 domain of PSD-95; ref (134),1.3 µM
same,Kd,PDZ1 domain of PSD-95; ref (49),2.3 µM
same,Kd,PDZ1 domain of PSD-95; ref (134),9.7 µM
"LacZ: untagged β-Galactosidase, literature values",Km,[4]; ONPG,161 µM
same,VMAX (umol ONPG/mg protein*min),[4],178* umol ONPG/mg protein*min
GST-EKLSSIESD: GST fused to NR2B tail sequence lacking the C-terminal valine ({GST}-EKLSSIESD),binding to and elution from PSD-95 PDZ2 matrix,[1],abolished binding to the column
IESDV,binding to and elution from PSD-95 PDZ2 matrix,[1],required for effective binding to and elution from the PDZ2 PSD-95 matrix
